Data as given in patent US8158591B2, “Anticancer treatment with a combination of taxanes and 13-deoxyanthracyclines” (Gem Pharmaceuticals, LLC, priority 2006, dated 2012).
“Also recorded” adds a separate entry of the source. Marks after values point to notes of the source that are not given here.

Columns and labels:
[1] = tested on: MCF-7 human mammary tumor cells; assay: inhibition of growth of MCF-7 cells (tritiated thymidine incorporation); conditions: for IC30 for inhibition of growth: MCF-7, 24 hours drug exposure; for fold increase in the cancer growth inhibition potency of paclitaxel: MCF-7, anthracycline at IC30 concentration
Experimental: (§1) The inhibitory effects of doxorubicin (I), 13-deoxydoxorubicin (II), 5-imino-13-deoxydoxorubicin (III), daunorubicin (IV), 13-deoxydaunorubicin (V), and 5-imino-13-deoxydaunorubicin (VI) on the growth of MCF-7 human mammary tumor cells and P388 murine leukemia cells are measured in vitro. The MCF-7 and P388 cell lines used for these studies are cultured and maintained utilizing the protocol from the American Type Culture Collection (ATCC) protocols. MCF-7 media was EMEM (Eagle Minimum
(§2) Essential Medium; ATCC) and P388 media is Dulbecco's modified Eagle's medium (DMEM, ATCC). Working media for MCF-7 and P388 is made by the addition of 50 ml FBS (fetal bovine serum, MCF-7) or 50 ml horse serum (ATCC, P388) to 450 ml EMEM media (MCF-7) or DMEM (P388). 4.5 g/L glucose (Sigma) is also added to the DMEM (P388). Five ml Penicillin/Streptomycin (P/S, Gibco) is added to the MCF-7 and P388 working media. Cells are grown at 37° C. in 5% CO2 for 1 week, and 25 ml fresh media is added. Cells are passaged when they reach a density of 1-2×10^6 cells/ml by transferring to a new flask containing fresh media.
(§3) Using sterile technique, MCF-7 cells are harvested from the T-75 flasks by removing and discarding the culture medium. 5 ml of 0.25% Trypsin-EDTA solution (Sigma) is added to each flask to de-attach the cells. The flask is placed in the incubator for 5-10 minutes to facilitate dispersal. 10 ml of complete growth medium is added, directly decanted into 50 ml tubes then centrifuged for 10 minutes at 200×g. P388 cells are harvested by directly decanting media into 50 ml tubes and centrifuging for 10 minutes at 200×g. The pellet (MCF-7 and P388) is resuspended in 5 ml and the cells dispersed by expelling gently through an 18 g needle fitted to a syringe. The cells are counted using a hemocytometer and diluted with media to 150,000 cells/ml. The diluted cells are pipetted into 96-well plates at a concentration of 15,000 cells/well in 100 μl. The plates are covered and incubated at 37° C. for 48 hours.
(§4) Dilutions of the anthracyclines and paclitaxel are made up in cell-specific serum-free media. The drugs at appropriate concentrations are added to all wells in 50 μl aliquots and the cells are grown in the presence of the drugs (anthracyclines/paclitaxel) for 24 hours. Tritiated thymidine (ICN) is diluted in serum-free cell-specific media to a concentration of 1 μCi/50 μl. All wells used for analysis are spiked with 50 μl aliquots of media containing tritiated thymidine. Following a 4-hour exposure to isotope, tritiated thymidine incorporation into DNA is measured by hypotonic lysis of cells with deionized water and collection of cellular contents onto Whatman GF-C filters using a Brandel cell harvester. Prior to harvesting MCF-7 cells, the media is aspirated, 150 μL of 0.25% Trypsin-EDTA is added to each well to de-attach the cells. Filters are allowed to dry, placed into 7 ml scintillation vials containing 5 ml scintillation cocktail and counted in a scintillation counter. In preliminary experiments, the concentrations of anthracyclines that would produce a 30% inhibition of growth (inhibitory concentration 30, IC30) on MCF-7 cells and 10% inhibition of growth (IC10) on P388 cells are determined.

P388 murine leukemia = assay: in vivo anticancer activity in murine leukemia model, CD2F1 mice injected with P388 cells; conditions: for Median survival time: 1 million P388 cells ip; for T/C % (median survival time of treated mice divided by that of control mice x 100): P388 ip
Experimental: Groups of CD2F1 mice are injected intraperitoneally (ip) with 1 million P388 cells. There were 10 mice per group. In the doxorubicin group 0.8 mg/kg is administered ip consecutively for 9 days on days 1-9 of the study. […] A control group is injected with vehicle. Median survival times are calculated for each group. Activity of a compound is expressed as the amount of prolonged survival (median survival of the treated group divided by the median survival time of the control group, multiplied by 100, T/C %).

[2] = optimum antitumor dose relative to doxorubicin; conditions: in vivo
[3] = cardiotoxicity evaluation in chronically treated rabbits (LVFS, hematocrit, isolated atria dF/dt, histopathology); conditions: rabbit; for cardiotoxicity with chronic dosing / HCT % (hematocrit), Post / Histopathology Score / dF/dt (myocardial contractility of isolated atria) / FS % (left ventricular fractional shortening), Post: in vivo; for HCT % (hematocrit), Post / FS % (left ventricular fractional shortening), Post: iv
Experimental: Twenty-four age matched New Zealand white rabbits weighing 3.0 kg are randomized into four groups (N=6 rabbits/group). […] Doses of drug or vehicle are administered iv into an ear vein two times per week. Serum and blood samples are obtained weekly and M-mode echocardiology performed weekly or every other week to obtain left ventricular fractional shortening (LVFS) to assess cardiac function. Food consumption is measured daily and body weight is measured weekly. Control rabbits are fed the same amount of food as doxorubicin treated rabbits (pair fed). At sacrifice, apex and left ventricular free wall samples are obtained and preserved in 10% buffered formalin for histologic scoring and analysis via light microscopy. Left ventricular tissue samples are also obtained to assess cardiac levels of anthracyclines and metabolites.
At sacrifice, the heart is removed and two types of tissue are sampled from the heart, ventricular apex and left ventricular free wall, and stored in 10% formalin. Each tissue is prepared for three different stains: H&E, toluidine blue, and trichcrome. The tissues are scored (blind) using a modification of the Billingham scale. The scoring scale is from 0-4 with 0=<10% of cells or tissue lesioned, 1 to 10%-19% of cells or tissue lesioned, 2 to 20%-29% of cells or tissue lesioned, 3 to 30%-39% of cells or tissue lesioned, 4 to 40% or more cells or tissue lesioned. The ventricular apex and the left ventricular free wall are analyzed separately. Each receives a score for mononuclear infiltration, fibrosis, and cytoplasmic vacuolization. Thus, each rabbit has six scores, three for the apex (mononuclear infiltration, fibrosis, and cytoplasmic vacuolization) and three for the left ventricular free wall (mononuclear infiltration, fibrosis, and cytoplasmic vacuolization). Each score is obtained by looking at all three stains.
Also at sacrifice, left atria are isolated, divided in half and both halves studied to assess cardiac function in vitro in a tissue bath where afterload and preload remain constant throughout the study. Cardiac contractility is measured as the maximum rate of force development (dF/dt) in response to contractions induced by electrical stimulation via punctuate electrodes located at the base of each muscle preparation.

[4] = tested on: P388 murine leukemia cells; assay: inhibition of growth of P388 cells in vitro (tritiated thymidine incorporation); conditions: for IC10 for inhibition of growth: P388, 24 hours drug exposure
Experimental: as §1, §2, §3, §4

H9c2 cells = assay: growth inhibition of non-cancerous H9c2 cells; type: cell-based; conditions: Rattus norvegicus
breast cancer = breast cancer patients; cited from earlier work
[5] = H9c2, H9c2, anthracycline alone
[6] = H9c2, H9c2, in the presence of weak growth inhibitory concentrations of paclitaxel (IC10)

Row | SMILES | IC30 for inhibition of growth [1] [nM] | fold increase in the cancer growth inhibition potency of paclitaxel [1] [fold] | Median survival time (P388 murine leukemia; drug ip on days 1-9, n = 10) [days] | T/C % (median survival time of treated mice divided by that of control mice x 100) (P388 murine leukemia; drug ip on days 1-9, n = 10) | cardiotoxicity with chronic dosing [3] | HCT % (hematocrit), Post [3] | IC10 for inhibition of growth [4] [nM] | also measured
1 | COc1cccc2c1C(=O)c1c(O)c3c(c(O)c1C2=O)C[C@@](O)(CCO)C[C@@H]3OC1CC(N)C(O)C(C)O1 (stereo partly drawn) [Compound II, 13-deoxydoxorubicin] | 450 | 20 | 27 | 142* % | devoid of cardiotoxicity | 23.8* % | 1100 | Median survival time (P388 murine leukemia; drug ip on days 1-9, n = 10, listed as 13-deoxydoxorubicin): significant increase in median survival time; optimum antitumor dose relative to the dose of doxorubicin [2]: approximately twice; IC50 (H9c2 cells; [5]): 700 nM; IC50 (H9c2 cells; [6]): 400 nM
2 | COc1cccc2c1C(=N)c1c(O)c3c(c(O)c1C2=O)C[C@@](O)(CCO)C[C@@H]3OC1CC(N)C(O)C(C)O1 (stereo partly drawn) [Compound III] | 750 | 220 | 27 | 142* % | devoid of cardiotoxicity | 33.3* % | 3500 | optimum antitumor dose relative to the dose of doxorubicin [2]: up to 7 times; IC50 (H9c2 cells; [5]): 1500 nM; IC50 (H9c2 cells; [6]): 210 nM
3 | CC[C@]1(O)Cc2c(O)c3c(c(O)c2[C@@H](OC2CC(N)C(O)C(C)O2)C1)C(=O)c1c(OC)cccc1C3=O (stereo partly drawn) [Compound V, 13-deoxydaunorubicin] | 645 | – | – | – | – | – | 700 | –
4 | CC[C@]1(O)Cc2c(O)c3c(c(O)c2[C@@H](OC2CC(N)C(O)C(C)O2)C1)C(=N)c1c(OC)cccc1C3=O (stereo partly drawn) [Compound VI] | 875 | – | – | – | – | – | 1700 | –
5 | COc1cccc2c1C(=O)c1c(O)c3c(c(O)c1C2=O)C[C@@](O)(C(C)=O)C[C@@H]3OC1CC(N)C(O)C(C)O1 (stereo partly drawn) [Daunorubicin (IV), daunorubicin] | 750 | – | – | – | – | – | 300 | –
6 | COc1cccc2c1C(=O)c1c(O)c3c(c(O)c1C2=O)C[C@@](O)(C(=O)CO)C[C@@H]3OC1CC(N)C(O)C(C)O1 (stereo partly drawn) [Doxorubicin (I), doxorubicin] | 100 | 2.8 | 28 | 147* % | profound cardiotoxicity | 27.5* % | 250 | anticancer response rate (breast cancer): 35-50%; T/C % (median survival time of treated mice divided by that of control mice x 100) (P388 murine leukemia; drug ip on days 1-9, n = 10, listed as Doxorubicin): 147%; Histopathology Score ([3]; New Zealand white): 1.81*,^+; dF/dt (myocardial contractility of isolated atria) ([3]; New Zealand white): 15.1*,^+ gms/sec; FS % (left ventricular fractional shortening), Post ([3]; New Zealand white): 27.4*,^+ %; cumulative cardiotoxic dose ([3]; 1.25 mg/kg twice/week for 7 weeks): 17.5 mg/kg; Histopathology Score [3]: significantly increased; dF/dt (myocardial contractility of isolated atria) [3]: significantly reduced; FS % (left ventricular fractional shortening), Post [3]: statistically significant decrease; IC50 (H9c2 cells; H9c2, anthracycline alone): 210 nM
7 | CC(=O)O[C@H]1C(=O)[C@@]2(C)[C@H]([C@H](OC(=O)c3ccccc3)[C@]3(O)C[C@H](OC(=O)[C@H](O)[C@@H](NC(=O)c4ccccc4)c4ccccc4)C(C)=C1C3(C)C)[C@]1(OC(C)=O)CO[C@@H]1C[C@@H]2O [Paclitaxel, paclitaxel] | – | – | – | – | – | – | – | anticancer response rate (breast cancer): 32-62%; growth inhibitory effect ([1]; MCF7, paclitaxel alone, 1 to 50 nM): no growth inhibitory effect; IC50 of paclitaxel for inhibition of growth ([4]; P388, paclitaxel alone or in the presence of the anthracycline at its IC10 concentration, mean ± standard error, n = 3): no inhibitory activity; also recorded: Inactive; growth inhibitory effect ([4]; P388, paclitaxel alone, concentrations up to 2000 nM): no growth inhibitory effect
